This note sets out measurements from article PMC6704710, “Preclinical evaluation of 3D185, a novel potent inhibitor of FGFR1/2/3 and CSF-1R, in FGFR-dependent and macrophage-dominant cancer models” (Journal of Experimental & Clinical Cancer Research : CR, 2019).

For one assay, the target named is T1, PKCι(h) (Homo sapiens, UniProt P41743).
T1 construct: purchased Eurofins (KinaseProfiler)
T1 sequence (P41743 1-596): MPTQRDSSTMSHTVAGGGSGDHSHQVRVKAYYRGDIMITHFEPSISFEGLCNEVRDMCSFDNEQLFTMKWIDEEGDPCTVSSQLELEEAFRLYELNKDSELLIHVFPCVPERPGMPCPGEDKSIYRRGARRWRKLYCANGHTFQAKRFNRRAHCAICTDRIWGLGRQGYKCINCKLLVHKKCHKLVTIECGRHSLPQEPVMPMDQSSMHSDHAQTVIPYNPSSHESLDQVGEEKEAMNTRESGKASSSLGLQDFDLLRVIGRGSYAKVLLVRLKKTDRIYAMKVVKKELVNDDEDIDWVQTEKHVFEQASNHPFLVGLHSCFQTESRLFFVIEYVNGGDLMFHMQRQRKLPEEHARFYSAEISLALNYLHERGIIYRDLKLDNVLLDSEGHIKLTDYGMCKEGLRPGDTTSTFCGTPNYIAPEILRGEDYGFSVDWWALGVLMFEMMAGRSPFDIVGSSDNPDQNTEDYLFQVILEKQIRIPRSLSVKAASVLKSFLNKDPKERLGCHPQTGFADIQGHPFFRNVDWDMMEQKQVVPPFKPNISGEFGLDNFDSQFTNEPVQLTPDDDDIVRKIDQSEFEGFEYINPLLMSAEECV
Briefly: Eurofins kinase panel. In kind it is biochemical. The note with it: read-out: Inhibition rate (%).

A further assay deals with T2, Pim-1(h) (Homo sapiens, UniProt P11309).
T2 construct: purchased Eurofins (KinaseProfiler)
T2 sequence (P11309 whole entry): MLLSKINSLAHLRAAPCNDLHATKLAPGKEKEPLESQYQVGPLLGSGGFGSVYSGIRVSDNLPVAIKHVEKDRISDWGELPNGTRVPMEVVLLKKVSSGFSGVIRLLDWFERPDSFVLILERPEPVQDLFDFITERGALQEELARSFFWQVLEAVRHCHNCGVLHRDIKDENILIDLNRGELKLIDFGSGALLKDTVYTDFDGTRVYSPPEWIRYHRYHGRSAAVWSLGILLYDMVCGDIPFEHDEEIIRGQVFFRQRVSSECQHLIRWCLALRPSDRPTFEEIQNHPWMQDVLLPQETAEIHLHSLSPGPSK
Nature of the assay: Eurofins kinase panel. Type of assay: biochemical. The note with it: read-out: Inhibition rate (%).

A further assay has as its target T3, CHK2(R145W)(h) (Homo sapiens, UniProt O96017, R145W).
T3 construct: purchased Eurofins (KinaseProfiler)
Nature of the assay: Eurofins kinase panel. In kind it is biochemical. The note with it: read-out: Inhibition rate (%).

In the next assay the target is T4, JNK3(h) (Homo sapiens, UniProt P53779).
T4 construct: purchased Eurofins (KinaseProfiler)
T4 sequence (P53779 whole entry): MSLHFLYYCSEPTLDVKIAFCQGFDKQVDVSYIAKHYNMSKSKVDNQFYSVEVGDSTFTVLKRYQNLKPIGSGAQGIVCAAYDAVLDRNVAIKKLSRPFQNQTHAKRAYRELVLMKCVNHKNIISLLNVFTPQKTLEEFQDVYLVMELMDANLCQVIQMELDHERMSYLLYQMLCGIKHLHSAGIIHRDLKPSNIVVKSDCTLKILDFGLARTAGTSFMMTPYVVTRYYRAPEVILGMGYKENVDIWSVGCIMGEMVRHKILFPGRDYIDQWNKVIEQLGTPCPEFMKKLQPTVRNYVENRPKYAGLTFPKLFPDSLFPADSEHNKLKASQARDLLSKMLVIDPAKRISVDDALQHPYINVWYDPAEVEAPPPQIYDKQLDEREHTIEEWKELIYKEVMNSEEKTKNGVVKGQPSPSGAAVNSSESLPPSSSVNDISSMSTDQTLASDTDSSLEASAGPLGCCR
Briefly: Eurofins kinase panel. Type of assay: biochemical. The note with it: read-out: Inhibition rate (%).

A further assay concerns the target T5, PKBα(h) (Homo sapiens, UniProt P31749).
T5 construct: purchased Eurofins (KinaseProfiler)
Nature of the assay: Eurofins kinase panel. Type of assay: biochemical. The note with it: read-out: Inhibition rate (%).

The target in a further assay is T6, TAO1(h) (Homo sapiens, UniProt Q7L7X3).
T6 construct: purchased Eurofins (KinaseProfiler)
T6 sequence (Q7L7X3 1-1001): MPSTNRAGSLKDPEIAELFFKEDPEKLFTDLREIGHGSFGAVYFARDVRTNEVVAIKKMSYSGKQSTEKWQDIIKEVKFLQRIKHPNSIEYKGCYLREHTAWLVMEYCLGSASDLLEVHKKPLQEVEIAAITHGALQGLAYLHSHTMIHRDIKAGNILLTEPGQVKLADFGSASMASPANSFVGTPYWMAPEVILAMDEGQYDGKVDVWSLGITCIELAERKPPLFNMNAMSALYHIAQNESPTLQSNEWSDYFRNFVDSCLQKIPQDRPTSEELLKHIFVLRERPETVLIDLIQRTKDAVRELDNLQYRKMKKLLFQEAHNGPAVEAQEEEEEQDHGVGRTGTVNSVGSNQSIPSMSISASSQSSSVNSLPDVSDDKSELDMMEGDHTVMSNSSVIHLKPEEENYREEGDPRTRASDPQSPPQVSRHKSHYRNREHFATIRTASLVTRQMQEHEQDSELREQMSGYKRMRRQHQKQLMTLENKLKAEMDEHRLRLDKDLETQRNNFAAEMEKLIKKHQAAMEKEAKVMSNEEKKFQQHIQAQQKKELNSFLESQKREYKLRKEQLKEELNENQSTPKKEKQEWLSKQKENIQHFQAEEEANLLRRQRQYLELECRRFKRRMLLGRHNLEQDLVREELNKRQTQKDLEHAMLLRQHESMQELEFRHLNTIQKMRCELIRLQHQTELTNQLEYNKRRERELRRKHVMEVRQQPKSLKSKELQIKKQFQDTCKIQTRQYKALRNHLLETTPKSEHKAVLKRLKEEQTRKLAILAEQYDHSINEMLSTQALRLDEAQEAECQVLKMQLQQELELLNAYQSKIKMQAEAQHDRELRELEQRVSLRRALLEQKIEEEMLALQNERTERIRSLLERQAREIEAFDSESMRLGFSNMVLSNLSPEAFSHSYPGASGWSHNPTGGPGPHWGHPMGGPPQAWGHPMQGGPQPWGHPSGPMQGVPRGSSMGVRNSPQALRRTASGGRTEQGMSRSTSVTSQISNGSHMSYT
Nature of the assay: Eurofins kinase panel. Type of assay: biochemical. The note with it: read-out: Inhibition rate (%).

Another assay deals with T7, JNK1α1(h) (Homo sapiens, UniProt P45983).
T7 construct: purchased Eurofins (KinaseProfiler)
T7 sequence (P45983 1-384 isoform P45983-2): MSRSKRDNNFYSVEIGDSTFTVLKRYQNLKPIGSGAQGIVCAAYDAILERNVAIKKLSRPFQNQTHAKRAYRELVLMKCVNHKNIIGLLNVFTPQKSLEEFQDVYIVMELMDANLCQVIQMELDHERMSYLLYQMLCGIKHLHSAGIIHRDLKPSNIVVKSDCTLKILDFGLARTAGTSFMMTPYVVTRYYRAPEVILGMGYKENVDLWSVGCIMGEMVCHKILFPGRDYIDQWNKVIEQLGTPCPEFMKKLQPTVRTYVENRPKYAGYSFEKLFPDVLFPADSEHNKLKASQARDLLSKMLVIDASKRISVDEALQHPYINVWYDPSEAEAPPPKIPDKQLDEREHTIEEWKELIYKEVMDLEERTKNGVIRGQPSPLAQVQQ
Briefly: Eurofins kinase panel. Type of assay: biochemical. The note with it: read-out: Inhibition rate (%).

Assay [1] has as its system bFGF-induced primary HUVECs. Nature of the assay: bFGF-induced HUVEC proliferation (CCK-8). In kind it is cell-based, human.

T5 sequence (P31749 whole entry): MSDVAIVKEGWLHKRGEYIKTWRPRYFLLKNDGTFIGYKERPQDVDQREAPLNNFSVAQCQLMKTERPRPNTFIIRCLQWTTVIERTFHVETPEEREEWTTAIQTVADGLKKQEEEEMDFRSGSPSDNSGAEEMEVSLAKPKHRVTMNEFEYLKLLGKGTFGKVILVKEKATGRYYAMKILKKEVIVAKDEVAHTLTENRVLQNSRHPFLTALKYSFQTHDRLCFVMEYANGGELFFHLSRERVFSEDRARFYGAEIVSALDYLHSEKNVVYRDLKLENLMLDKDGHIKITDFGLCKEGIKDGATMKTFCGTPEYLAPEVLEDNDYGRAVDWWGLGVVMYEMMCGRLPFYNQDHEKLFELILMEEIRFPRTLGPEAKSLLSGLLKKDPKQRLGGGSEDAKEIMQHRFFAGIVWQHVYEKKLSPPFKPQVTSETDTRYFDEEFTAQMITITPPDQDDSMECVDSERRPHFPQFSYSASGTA
T3 sequence (O96017 whole entry R145W): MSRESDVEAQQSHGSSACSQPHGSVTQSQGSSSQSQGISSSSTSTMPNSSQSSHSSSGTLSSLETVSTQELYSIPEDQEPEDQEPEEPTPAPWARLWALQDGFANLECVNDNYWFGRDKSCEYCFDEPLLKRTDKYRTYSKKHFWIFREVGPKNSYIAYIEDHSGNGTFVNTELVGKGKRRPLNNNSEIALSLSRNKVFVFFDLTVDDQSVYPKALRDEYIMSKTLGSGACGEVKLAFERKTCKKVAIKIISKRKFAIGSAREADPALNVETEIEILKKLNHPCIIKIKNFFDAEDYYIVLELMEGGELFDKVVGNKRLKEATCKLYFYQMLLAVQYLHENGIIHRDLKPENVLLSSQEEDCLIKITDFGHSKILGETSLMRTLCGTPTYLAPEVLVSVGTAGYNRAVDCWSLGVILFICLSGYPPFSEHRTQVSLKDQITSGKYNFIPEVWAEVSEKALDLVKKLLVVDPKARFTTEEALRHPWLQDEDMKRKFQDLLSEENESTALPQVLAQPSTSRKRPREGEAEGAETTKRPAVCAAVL

As to `COc1cc(OC)c(Cl)c(-c2ccc3c(NC(=O)c4ccc(N5CCNC(C)(C)C5)cc4)n[nH]c3n2)c1Cl` [3D185], the inhibition (commonly the relative decrease from the control value, in per cent) at 0.01 µM at PKCι(h) (10 nM) was -1%; on Pim-1(h) (10 nM) it was -5%; at CHK2(R145W)(h) (10 nM) it was -17%; on JNK3(h) (10 nM), -17%; on PKBα(h) (10 nM), -6%; at TAO1(h) (10 nM), -2%. Besides, the inhibition at 0.01 µM at JNK1α1(h) (10 nM) was -3%. The inhibition at 0.1 µM at PKCι(h) (100 nM) is 0%; on Pim-1(h) (100 nM), 13%; at CHK2(R145W)(h) (100 nM) it was -15%; at JNK3(h) (100 nM), -22%; at PKBα(h) (100 nM), -8%; at TAO1(h) (100 nM) it was 6%. At JNK1α1(h) (100 nM), the inhibition at 0.1 µM is -4%. For the same compound, the inhibition at 1 µM was -1% at PKCι(h) (1000 nM); 9% on Pim-1(h) (1000 nM); -4% at CHK2(R145W)(h) (1000 nM); -36% at JNK3(h) (1000 nM); -7% on PKBα(h) (1000 nM); 21% on TAO1(h) (1000 nM). Besides, the inhibition at 1 µM on JNK1α1(h) (1000 nM) was found to be 3%. For the same compound, inhibition in assay [1] (Homo sapiens, HUVEC, bFGF 100 ng/mL, 48 h) was half-maximal at 0.5 nM (IC50). Besides, in assay [1] (cellular assays), the “fold more potent on bFGF-induced than VEGF-induced HUVEC proliferation” value is “greater than 176 fold”.
